The values below are quoted from earlier work in patent US5688524A, “Transdermal formulations for administering prazosin” (Cygnus, Inc., priority 1993, dated 1997).

For series [1] the following is noted: oral; incomplete absorption, GI degradation, first pass liver metabolism.
Series [2] has as its system benign prostatic hypertrophy (BPH). The note with it: in vivo.

Take `COc1cc2nc(N3CCN(C(=O)c4ccco4)CC3)nc(N)c2cc1OC` [prazosin]: the bioavailability entry in series [1] is recorded as “incomplete bioavailability”. For the same compound, the “effect in treating benign prostatic hypertrophy (BPH)” value in series [2] was “effective in treating benign prostatic hypertrophy (BPH)”.
